Patent publication US20020028836A1, “Potassium channel openers” (priority 2000, published 2002)
Read-outs that look alike come from different tables or passages of the source.

Tests used:
[1] = test system: tissue strips obtained from Landrace pig bladders; experiment: Functional potassium channel opening activity in isolated bladder strips (field-stimulated twitch); conditions: for Index: ED50 for P1075 divided by ED50 for the test agonist in a given tissue, averaged; for EC50: amount of agent necessary to cause 50% of the agent's maximal response, read-out: ED50 (the source's name); for Emax / Efficacy (% P1075): maximal efficacy relative to P1075, field stimulation 0.05 Hz, 0.5 ms, 20 volts
Procedure, shortened: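 Mucosa-free female Landrace pig bladder strips in Krebs Ringer bicarbonate (pH 7.4, 37° C., 0.004 mM propranolol), 1.0 g preload, field-stimulated at 0.05 Hz, 0.5 ms, 20 V for twitch. Cumulative concentration-response curves; maximal efficacy as % of P1075, ED50 fitted, potency index = P1075 ED50/test ED50 per tissue, averaged.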

[2] = test system: primary cultured guinea-pig urinary bladder (GPB) cells; experiment: Membrane hyperpolarization (MHP) assay, DiBAC(4)3 / FLIPR; format: cell-based; conditions: for EC50: concentration that elicits 50% of the maximal response for the test sample
Protocol: Compounds were evaluated for potassium channel opening activity using primary cultured guinea-pig urinary bladder (GPB) cells.
For the preparation of urinary bladder smooth muscle cells, urinary bladders were removed from male guinea-pigs (Hartley, Charles River, Wilmington, Mass.) weighing 300-400 g and placed in ice-cold Ca^2+-free Krebs solution (Composition, mM: KCl, 2.7; KH2PO4, 1.5; NaCl, 75; Na2HPO4, 9.6; Na2HPO4.7H2O, 8; MgSO4, 2; glucose, 5; HEPES, 10; pH 7.4). Cells were isolated by enzymatic dissociation as previously described with minor modifications (Klockner, U. and Isenberg, G., Pflugers Arch. (1985), 405, 329-339), hereby incorporated by reference. The bladder was cut into small sections and incubated in 5 mL of the Kreb's solution containing I mg/mL collagenase (Sigma, St. Louis, Mo.) and 0.2 mg/mL pronase (Calbiochem, La Jolla, Calif.) with continuous stirring in a cell incubator for 30 minutes. The mixture was then centrifuged at 1300×g for 5 minutes, and the pellet resuspended in Dulbecco's PBS (GIBCO, Gaithersburg, Md.) and recentrifuged to remove residual enzyme. The cell pellet was resuspended in 5 mL growth media (composition: Dulbecco's modified Eagle's medium supplemented with 10% fetal bovine serum, 100 units/mL penicillin, 100 units/mL streptomycin and […] amphotericin B) and further dissociated by pipetting the suspension through a flame-polished Pasteur pipette and passing it through a polypropylene mesh membrane (Spectrum, Houston, Tex.). The cell density was adjusted to 100,000 cells/mL by resuspension in growth media. Cells were plated in clear-bottomed black 96-well plates (Packard) for membrane potential studies at a density of 20,000 cells/well and maintained in a cell incubator with 90% air: 10% CO2 until confluent. Cells were confirmed to be of smooth muscle type by cytoskeletal staining using a monoclonal mouse anti human-α-smooth muscle actin (Biomeda, Foster City, Calif.).
Functional activity at potassium channels was measured by evaluating changes in membrane potential using the bis-oxonol dye DiBAC(4) (Molecular Probes) in a 96-well cell-based kinetic assay system, Fluorescent Imaging Plate Reader (FLIPR) (K. S. Schroeder et al., J. Biomed. Screen., v. 1 pp. 75-81 (1996)), hereby incorporated by reference. DiBAC(4)3 is an anionic potentiometric probe which partitions between cells and extracellular solution in a membrane potential-dependent manner. With increasing membrane potential (for example, K^+ depolarization), the probe further partitions into the cell; this is measured as an increase in fluorescence due to dye interaction with intracellular lipids and proteins. Conversely, decreasing membrane potential (hyperpolarization by potassium channel openers) evokes a decrease in fluorescence.
Confluent guinea-pig urinary bladder cells cultured in black clear-bottomed 96-well plates were rinsed twice with […] assay buffer (composition, mM: HEPES, 20; NaCl, 120; KCl, 2; CaCl2, 2; MgCl2, 1; glucose, 5; pH 7.4 at 25° C.) containing 5 μM DiBAC(4)3 and incubated with […] of the buffer in a cell incubator for 30 minutes at 37° C. to ensure dye distribution across the membrane. After recording the baseline fluorescence for 5 minutes, the reference or test compounds, prepared at 10 times the concentration in the assay buffer, were added directly to the wells. Changes in fluorescence were monitored for an additional 25 minutes. Hyperpolarization responses were corrected for any background noise and were normalized to the response observed with 10 μM of the reference compound P1075 (assigned as 100%), a potent opener of smooth muscle KATP channels (Quast et al., Mol. Pharmacol., v. 43 pp. 474-481 (1993)), hereby incorporated by reference.
Routinely, five concentrations of P1075 or test compounds (log or half-log dilutions) were evaluated and the maximal steady-state hyperpolarization values (expressed as % relative to P1075) plotted as a function of concentration. […]

[3] = Cavia porcellus, maximal steady-state hyperpolarization, normalized to response with 10 μM P1075 (100%)

| Compound | Index [1] | EC50 ([1]; Sus scrofa) | Emax ([1]; Sus scrofa) | EC50 ([2]; Cavia porcellus) | Emax [2, 3] | EC50 [1] | Efficacy (% P1075) [1] | EC50 [2] | Maximal Response (% P1075) ([2]; maximal steady-state hyperpolarization, normalized to response with 10 μM P1075 (100%)) |
| --- | --- | --- | --- | --- | --- | --- | --- | --- | --- |
| Cc1ccc(C(=O)N[C@@H](NC(=S)Nc2cccnc2)C(C)(C)C)cc1 [Example 24, N-((1S)-2,2-dimethyl-1-{[(3-pyridinylamino)carbothioyl]amino}propyl)-4-methylbenzamide] | 0.007 | 17 µM | 100% | 0.08 µM | 93% | – | – | – | – |
| CC(C)(C)C(NC(=O)c1ccc(I)cc1)NC(=NC#N)Nc1cccnc1 (centres unmarked) [Example 103, N-(1-{[(cyanoimino)(3-pyridinylamino)methyl]amino}-2,2-dimethylpropyl)-4-iodobenzamide] | 0.450 | 2.4 µM | 83% | 0.05 µM | 103% | – | – | – | – |
| Cc1ccc(C(=O)NC(NC(=S)Nc2cccc(F)c2F)C(F)(F)F)cc1 (centres unmarked) [Example 18, N-(1-{[(2,3-difluoroanilino)carbothioyl]amino}-2,2,2-trifluoroethyl)-4-methylbenzamide] | 0.020 | 8 µM | 97% | 0.09 µM | 123% | – | – | – | – |
| Cc1ccc(C(=O)NC(NC(=NC#N)Nc2cccnc2)C(C)(C)C)cc1 (single isomer, unassigned; (-)) [Example 57, (−) N-(1-{[(cyanoimino)(3-pyridinylamino)methyl]amino}-2,2-dimethylpropyl)-4-methylbenzamide] | 0.007 | – | – | – | – | 14 µM | 85 % P1075 | 4.6 µM | 80 % P1075 |
| CC(C)(C)CC(NC(=O)c1ccc(Cl)cc1)NC(=N[N+](=O)[O-])Nc1cccnc1 (centres unmarked) [Example 124, 4-chloro-N-(1-{[(nitroimino)(3-pyridinylamino)methyl]amino}-3,3-dimethylbutyl)benzamide] | 0.012 | – | – | 0.11 µM | 98% | 9.3 µM | 47 % P1075 | – | – |
| Cc1ccc(C(=O)NC(NC(=NC#N)Nc2ccccc2F)C(Cl)(Cl)Cl)cc1 (centres unmarked) [Example 47, 4-methyl-N-(2,2,2-trichloro-1-{[(cyanoimino)(2-fluoroanilino)methyl]amino}ethyl)benzamide] | 0.019 | 36 µM | 67% | 0.06 µM | 98% | – | – | – | – |
| C=CCC(C)(C)C(NC(=O)c1ccc(Cl)cc1)NC(=NC#N)Nc1cccnc1 (single isomer, unassigned; (-)) [Example 90, (−) 4-chloro-N-(1-{[(cyanoimino)(3-pyridinylamino)methyl]amino}-2,2-dimethyl-4-pentenyl)benzamide] | 0.420 | 0.42 µM | 44% | – | 55% | – | – | 0.17 µM | – |
| N#CN=C(Nc1cccnc1)NC(NC(=O)c1ccccc1)C(Cl)(Cl)Cl (centres unmarked) [Example 49, N-(2,2,2-trichloro-1-{[(cyanoimino)(3-pyridinylamino)methyl]amino}ethyl)benzamide] | 0.031 | 3 µM | 100% | 0.04 µM | 92% | – | – | – | – |
| CC(C)(C)C(NC(=O)c1ccccc1)NC(=S)Nc1cccnc1 (centres unmarked) [Example 28, N-(2,2-dimethyl-1-{[(3-pyridinylamino)carbothioyl]amino}propyl)benzamide] | 0.004 | 42 µM | 100% | 0.5 µM | 77% | – | – | – | – |
| Cc1ccc(C(=O)NC(NC(=S)Nc2cccnc2)C(F)(F)F)cc1 (centres unmarked) [Example 1, 4-methyl-N-(2,2,2-trifluoro-1-{[(3-pyridinylamino)carbothioyl]amino}ethyl)benzamide] | 0.009 | 9 µM | 100% | 0.07 µM | 116% | – | – | – | – |
| O=C(NC(NC(=S)Nc1ccccc1)C(F)(F)F)c1ccc(Cl)cc1 (centres unmarked) [Example 20, N-{1-[(anilinocarbothioyl)amino]-2,2,2-trifluoroethyl}-4-chlorobenzamide] | 0.011 | 28 µM | 84% | 0.09 µM | 85% | – | – | – | – |
| Cc1ccc(C(=O)NC(NC(=S)Nc2cccnc2)c2ccccc2)cc1 (centres unmarked) [Example 34, 4-methyl-N-(phenyl{[(3-pyridinylamino)carbothioyl]amino}methyl)benzamide] | 0.003 | 23 µM | 99% | 0.5 µM | 80% | – | – | – | – |
| Cc1ccc(C(=O)NC(NC(=S)Nc2ccccc2F)C(F)(F)F)cc1 (centres unmarked) [Example 11, 4-methyl-N-(2,2,2-trifluoro-1-{[(2-fluoroanilino)carbothioyl]amino}ethyl)benzamide] | 0.011 | 19 µM | 100% | 0.51 µM | 109% | – | – | – | – |
| O=C(Nc1cccnc1)NC(NC(=O)c1ccccc1)C(Cl)(Cl)Cl (centres unmarked) [Example 40, N-(2,2,2-trichloro-1-{[(3-pyridinylamino)carbonyl]amino}ethyl)benzamide] | 0.007 | 15 µM | 100% | 0.12 µM | 100% | – | – | – | – |
| C=CC(C)(C)CC(NC(=O)c1ccc(Cl)cc1)NC(=N[N+](=O)[O-])Nc1cccnc1 (centres unmarked) [Example 133, 4-chloro-N-(1-{[(nitroimino)(3-pyridinylamino)methyl]amino}-3,3-dimethyl-4-pentenyl)benzamide] | 0.039 | 8.4 µM | 58% | 0.039 µM | 106% | – | – | – | – |
| C=CC(C)(C)CC(NC(=O)c1ccc(Cl)cc1)NC(=NC#N)Nc1cccnc1 (centres unmarked) [Example 92, 4-chloro-N-(1-{[(cyanoimino)(3-pyridinylamino)methyl]amino}-3,3-dimethyl-4-pentenyl)benzamide] | 0.047 | 1.8 µM | 76% | 0.25 µM | 71% | – | – | – | – |
| Cc1ccc(C(=O)NC(NC(=O)Nc2cccnc2)C(Cl)(Cl)Cl)cc1 (centres unmarked) [Example 38, 4-methyl-N-(2,2,2-trichloro-1-{[(3-pyridinylamino)carbonyl]amino}ethyl)benzamide] | 0.015 | 7 µM | 98% | 0.1 µM | 100% | – | – | – | – |
| Cc1ccc(C(=O)NC(NC(=S)Nc2c(F)cccc2F)C(F)(F)F)cc1 (centres unmarked) [Example 17, N-(1-{[(2,6-difluoroanilino)carbothioyl]amino}-2,2,2-trifluoroethyl)-4-methylbenzamide] | 0.006 | 12 µM | 100% | 0.09 µM | 109% | – | – | – | – |
| Cc1ccc(C(=O)NC(NC(=S)Nc2cccc([N+](=O)[O-])c2)C(F)(F)F)cc1 (centres unmarked) [Example 4, 4-methyl-N-(2,2,2-trifluoro-1-{[(3-nitroanilino)carbothioyl]amino}ethyl)benzamide] | 0.015 | 18 µM | 89% | 0.3 µM | 133% | – | – | – | – |
